Results taken from US20120159656A1, “COMPOSITIONS AND METHODS FOR […] DEFECTS” (Galenea Corp., priority 2009, published 2012).
Entries after “also recorded” stand apart in the source; their conditions may differ.

Legend:
EEG power in the PFC = assay: Spectral analysis of PFC EEG by frequency band (area under the curve) in a familiar environment; assay type: in vivo, mouse
Method: Surgery, Animal handling and EEG recording were performed according to the methods disclosed herein (See, e.g., Examples 1-5). Recordings in a novel environment were made upon an animal's first exposure to the recording chamber. Animals were exposed to the recording chamber an additional 3 times (15 min each) to record EEGs from a familiar environment (fourth exposure).
EEG analysis. EEGs were analyzed using an automated FFT-periodogram function with Hamming windows in the Matlab analysis suite (pwelch function, The Mathworks, Inc., Natick MA). EEGs were analyzed in 10 sec intervals and power spectral analyses were computed for each 10 sec interval by averaging 1 sec power spectra with a 0.5 sec overlap across the entire 10 sec. Power across a given frequency band was determined by computing the area under the curve for various frequency bands (Theta: 4-12 Hz; GammaLow: 30-55 Hz; GammaHi: 65-90 Hz; Ripple: 100-300 Hz). Measures of power for each animal were binned and a frequency histogram representing number of events (10 sec each) observed at each power was computed. Frequency histograms across a given genotype were averaged to derive the final EEG power histogram for each frequency band.
To investigate the disease relevance of this intermediate power phenotype, EEGs were recorded from normal control animals in a familiar environment before and after they were treated with the psychotomimetic compound, phencyclidine (PCP) (5 mg/kg, IP).

[1] = system: gamma oscillations recorded from prefrontal cortex (PFC); assay: Continuous EEG recording from PFC of well-habituated mice, maximal gamma power (30-90 Hz); details: PCP 5 mg/kg
[2] = system: high-power gamma oscillations in the PFC; assay: EEG recording from PFC in absence and presence of novel objects before and after PCP; assay type: in vivo, mouse; details: PCP 5 mg/kg intraperitoneal, gamma 30-90 Hz
Method: Real-time monitoring of EEGs and single-unit activity (SUA) from PFC was performed via surgical implantation of 8-microwire bundle electrodes (FIG. 5A, B). […] Recordings were made using commercially available multichannel hardware (Multichannel Systems, Reutlingen, Germany). The system is capable of monitoring EEGs and SUA from PFC in freely behaving mice (FIG. 5C) and this neural activity has been characterized (FIG. 5D).
In another series of experiments, the EEG recording techniques were determined to be sensitive enough to detect pharmacologically-induced perturbations in neural activity in vivo. For these studies EEGs from PFC were measured when mice were in the absence and presence of novel environmental stimuli. To determine whether EEGs recorded from PFC are sensitive to a pharmacologic manipulation known to impair cognitive function, animals were injected intraperitoneally with PCP (5 mg/kg) and EEGs were recorded in the absence and presence of novel environmental stimuli. This experiment confirmed that high-power gamma oscillations in the PFC were elicited while animals attend to novel stimuli in the environment (FIG. 10A). […] These observations confirm that the techniques for monitoring EEGs and SUA in the PFC of freely behaving mice are sensitive enough to detect treatments known to inhibit cognition.

[3] = control animals, PCP 5 mg/kg IP

c1ccc(C2(N3CCCCC3)CCCCC2)cc1 [PCP, phencyclidine]
average power in the GammaHi frequency band (65-90 Hz) (EEG power in the PFC; control animals treated with PCP 5 mg/kg IP, n=5): 19.12±0.11 | effect on power in the GammaHi frequency band (65-90 Hz) (EEG power in the PFC; [3]): significant increase in the number of high-powered events; also recorded: increased the average spectral power | effect on power in the GammaLow frequency band (30-55 Hz) (EEG power in the PFC; [3]): significantly more high-powered GammaLow events; also recorded: increased the average spectral power | effect on power in the Ripple frequency band (100-300 Hz) (EEG power in the PFC; [3]): no significant differences in power; also recorded: no effect | effect on power in the Theta frequency band (4-12 Hz) (EEG power in the PFC; [3]): significant increase; also recorded: increased the average spectral power | distribution of the power of gamma oscillations ([1]; familiar environment, normal mice): unimodal distribution of gamma oscillations with “Intermediate” power | gamma oscillation power after injection ([1]; well-habituated animals, gamma 30-90 Hz): 4 μV^2/Hz | expression of high-power gamma oscillations during novel object presentation [2]: completely blocked the expression of high-power gamma oscillations; also recorded: lack of a bimodal distribution in gamma oscillation power
